The source of these data is patent US7371555B2, “Polypeptides having α-H-α-amino acid amide racemase activity and nucleic acids encoding the same” (DSM IP Assets B.V., priority 2002, dated 2008).

Each structure is given as a SMILES string.

For test [1], the system named is α-H-α-amino acid amide racemase from Arthrobacter nicotianae NCIMB 41126. Description: Substrate specificity, CFE from E. coli DH10B/pAn(1)PLV36D06 (Example 9). The test is classed as biochemical. Conditions: relative to the activity towards D-leucine amide; 75 mM substrate, pH 8.0, 37° C. On the procedure:
Preparation of the CFE of E. coli DH10B/pAn(1)PLV36D06 was performed as described in Example 7 for E. coli TOP10/pKEC_AZAR—3
Before applying the CFE from E. coli DH10B/pAn(1)PLV36D06 in the reactions with different enantiomerically pure α-H-α-amino acid amides to determine the substrate specificity of the A. nicotianae α-H-α-amino acid amide racemase, the E. coli amidases/aminopeptidases in this CFE were inhibited by a pre-treatment with an inhibitor cocktail. One tablet of Complete Mini Protease Inhibitor Cocktail (Roche Applied Science, Mannheim, Germany) was dissolved in 9 ml of the CFE followed by an incubation of 1 hour at room temperature. Next, reaction mixtures of 10 ml each (including the CFE) were prepared containing 50 mM HEPES-NaOH, pH 8.0, 20 μM pyridoxal-5-phosphate, 0.4 mg/ml BSA, 1 mM dithiothreitol and 75 mM of one of the amino acid amides tested. Reactions were started by the addition of 1 ml of the pre-treated CFE of E. coli DH10B/pAn(1)PLV36D06 or E. coli TOP10/pBAD/Myc-HisC (blank) and were incubated at 37° C. At regular time intervals samples of 1 ml were taken and transferred to vials containing 1 ml of 1M H3PO4 to stop the reaction. After sufficient dilution of the samples in 0.4 M borate buffer pH 9.4, the mixtures obtained were analyzed using HPLC to determine the exact concentrations of the two amino acid and two amino acid amide enantiomers according to the method of Example 7.

Test [2] concerns partially purified α-H-α-amino acid amide racemase from O. anthropi IA. The test can be described thus: Substrate specificity of the partially purified racemase (Example 8). The test is classed as biochemical, Ochrobactrum anthropi IA. Further details: tested at 75 mM. The settings on record: relative to the activity towards L-leucine amide; pH 8.0, 37° C. How it is done:
The substrate specificity of the O. anthropi IA α-H-α-amino acid amide racemase was determined using the partially purified enzyme preparation obtained by the protocol described above. Reaction mixtures of 1 ml total volume were prepared by mixing 772 μl of 66.6 mM HEPES-NaOH, pH 8.0, 10 μl of 0.1 M dithiothreitol, 18 μl of a solution containing 20 mg/ml BSA and 1 mM pyridoxal-5-phosphate, and 100 μl of a 0.75 M substrate solution, pH 8.0. After equilibration for 5 minutes at 37° C., the reactions were started by the addition of 100 μl of the enzyme solution. Reaction mixtures were incubated at 37° C. without shaking. After regular time intervals, samples of 50 μl were taken and transferred into vials containing 950 μl of 1 M H3PO4 to stop the reaction. After sufficient dilution of the samples in 0.4 M borate buffer pH 9.4, the mixtures obtained were analyzed using HPLC to determine the exact concentrations of two amino acid amide enantiomers according to the method of Example 7.
Initial activity for the different substrates tested was calculated from the linear parts of the progress curves, in which the amount of the amino acid amide enantiomer formed (so with a stereochemistry opposite to the substrate molecule) was plotted against the reaction time.

In test [3] the test system is α-H-α-amino acid amide racemase from Ochrobactrum anthropi IA. The test can be described thus: Substrate specificity, CFE from E. coli TOP10/pKEC_AZAR_3 (Example 7). Type of test: biochemical. The settings on record: relative to the activity towards D-leucine amide; 75 mM substrate, 20 mM EDTA, pH 8.0, 37° C. On the procedure:
Two pre-cultures of E. coli TOP10/pKEC_AZAR—3 (see Example 4) were prepared by inoculation of 2 erlenmeyer flasks with 100 ml of 2*TY medium (10 g/l Yeast extract, 16 g/l Tryptone, 5 g/l NaCl) containing 50 mg/l of kanamycin with 10 μl of a glycerol stock per flask. After overnight cultivation at 28° C. and 200 rpm, the pre-cultures were pooled, and subsequently used to inoculate 2 erlenmeyer flasks each containing 1 l of the same medium. Also these flasks were cultivated at 28° C. and 200 rpm for 16-18 h. Cells were harvested by centrifugation (15 min. at 6,200×g, 4° C.), washed with 20 mM HEPES-NaOH, pH 7.5, pooled, weighed, and resuspended in a solution containing 20 mM HEPES-NaOH, pH 7.5, 20 μM pyridoxal-5-phosphate, and 1.3 mM of dithiothreitol in a 1:3 ratio of wet weight cells to solution. Then, cells were disintegrated by 10 min. sonification with a Soniprep 150 of MSE operated at maximum amplitude using time intervals of 10 sec. (i.e., 10 sec. sonification, 10 sec. cooling) and cooling in ice/acetone. Particles were removed by centrifugation, after which sucrose was added to the cell free extract to a final concentration of 0.25 M. The resulting cell free extract (CFE) was stored in aliquots at −20° C. E. coli TOP10/pBAD/Myc-HisC (Invitrogen) cells were treated in exactly the same way and served as negative control.
The substrate specificity of the α-H-α-amino acid racemase from O. anthropi IA was determined by measuring the racemase activity of the above-mentioned CFE towards a number of enantiomerically pure amino acid amides. Each reaction mixture of 10 ml (including the CFE) contained 50 mM HEPES-NaOH, pH 8.0, 20 μM pyridoxal-5-phosphate, 0.4 mg/ml BSA, 1 mM dithiothreitol, 20 mM EDTA and 75 mM of one of the amino acid amides tested. Reactions were started by the addition of 1 ml of the thawed CFE of E. coli TOP10/pKEC_AZAR—3 or E. coli TOP10/pBAD/Myc-HisC (blank) and were incubated at 37° C. At regular time intervals samples of 1 ml were taken and transferred to vials containing 1 ml of 1M H3PO4 to stop the reaction. After sufficient dilution of the samples in 0.4 M borate buffer pH 9.4, the mixtures obtained were analyzed using HPLC to determine the exact concentrations of the two amino acid and two amino acid amide enantiomers according to the following method.
The initial activity for the different substrates tested was calculated from the linear parts of the progress curves, in which the conversion was plotted against the reaction time. Use of the linear part of the progress curves secured that only samples taken at time points at which the substrate concentration was still sufficiently high, were used for the calculations. The conversion was calculated by dividing the amount of amino acid and amino acid amide formed via the racemase reaction (so with the opposite stereochemistry compared to the substrate molecule) by the total amount of two amino acid enantiomers and the two amino acid amide enantiomers.

Test [4] has as its system E. coli clones with plasmid encoded A. nicotianae NCIMB 41126 α-H-α-amino acid amide racemase activity. Description: Confirmation of potential positive clones of the A. nicotianae NCIMB 41126 gene library. The test is classed as cell-based, Arthrobacter nicotianae NCIMB 41126. Conditions: 70 mM substrate, 10 μM pyridoxal-5-phosphate, 20 h at 30° C. On the procedure:
Of all 32 potential positive clones identified in the screening, material from the masterplates was used to inoculate 3 ml of liquid screening medium containing 50 mg/l kanamycin. After growth for 2 days at 30° C., cells were collected by centrifuging 2 ml of these cell cultures. Then the cell pellets were washed four times in 25 mM Tris-HCl buffer, pH 7.5. Subsequently, the cell pellets were resuspended in 100 μl substrate solution containing 70 mM of D-phenylalanine amide, or D-leucine amide, or D-valine amide in 50 mM Tris-HCl, pH 7.5 and 1 mM MnCl2. After incubation for 20 h at 30° C., the reactions were stopped by the addition of 100 μl of 0.15 M HCl, after which the reaction mixtures were analyzed by the HPLC method described in Example 1.
Confirmation of both potential positive clones was done according to the protocol given in Example 3, with the exception that all 3 substrate solutions used contained 10 μM of pyridoxal-5-phosphate.

As to `CC[C@H](N)C(N)=O` [L-2-aminobutyric acid amide], the Rel. initial activity was determined as 76% in test [1], 641% in test [2] and 203% in test [3].

For `CCC[C@@H](N)C(N)=O` [D-norvaline amide], the values for the Rel. initial activity in test [1], in test [2] and in test [3] were 107%, 341% and 94%, respectively.

As for `CC(C)[C@@H](N)C(N)=O` [D-valine amide], the “conversion of D-amide into L-acid” value in test [4] is “significantly converted”. In test [1], the Rel. initial activity is given as 45%.
